Measured values as given in patent publication US20120141561A1, “NANOPARTICULATE CANDESARTAN CILEXITIL COMPOSITIONS, PROCESS FOR THE PREPARATION THEREOF AND PHARMACEUTICAL COMPOSITIONS CONTAINING THEM” (priority 2009, published 2012).

Legend:
[1] = monotherapy, 108 of 3260 patients; cited from earlier work
[2] = rat, in vivo, po, 10 mg/kg
Procedure: In Vivo Pharmacokinetic Tests Male Sprague-Dawley Rats in Fasted Condition
Comparative In Vivo Pharmacokinetic Tests in Male Sprague-Dawley Rats in Fasted Condition
Both test substances were administered via gastric tube in a dosing volume of 5 ml/kg. The vehicle of the test items was sterile 0.9% NaCl solution and the suspension was kept homogenous by continuous stirring during treatment in order to minimize the error resulting from the sedimentation.
Male Wistar rats (purchased from Laboratory Animal Center, University of Szeged) were maintained on a standard pellet rodent diet (Bioplan Ltd, Isaszeg, Hungary) under temperature and light-controlled conditions with tap water available ad libitum. The acclimatization period was at least 4 days. […] All animals were fasting for 16 hours before oral treatment. […] Water was available immediately after treatment for all animals. […] Serum samples were prepared by centrifugation (7000 rpm, 10 min, 4° C.) of the clotted blood within 60 minutes and were stored at −20° C. till analysis.
An aliquot of 200 μl serum was combined with 20 μl of internal standard working solution and 1.2 ml methanol for protein precipitation. The mixture was vortexed for 1 min and centrifuged at 12000 rpm for 10 min at 4° C. The supernatants were evaporated to dryness under a stream of nitrogen at 40° C. and reconstituted with 200 μl of water-methanol (50:50 v/v) and 20 μl was injected into the HPLC system.
Statistical analysis and graph drawing were carried out be GraphPad Prism 4.0 (GraphPad Software, San Diego, USA).

[3] = cited from earlier work
[4] = Comparative dissolution test in distillate water; assay type: physicochemical; conditions: 5 mg in 10 mL distillate water
Procedure: The suspension was stirred for 1, 5, 10, 15, 20, and 30 minutes and then it was filtered by 0.2 μm disposable syringe filter.

[5] = cited from earlier work; remark: listed apart in the source
[6] = rats; cited from earlier work
[7] = intravenous dose of 14C-labeled Candesartan

CCOc1nc2cccc(C(=O)OC(C)OC(=O)OC3CCCCC3)c2n1Cc1ccc(-c2ccccc2-c2nnn[nH]2)cc1 (racemic) [Candesartan Cilexetil, (±)-1-Hydroxyethyl 2-ethoxy-1-[p-(o-1H-tetrazol-5-ylphenyl)benzyl]-7-benzimidazolecarboxylate, cyclohexyl carbonate (ester)]
rate of withdrawals due to adverse events [1]: 3.3% | AUC15-120 min [2]: 120.8 µg·min/mL | AUC15-360 min [2]: 420.2 µg·min/mL | maximal serum Candesartan concentration (Cmax) [2]: 1612 ± 248 ng/mL | tmax [2]: 2 h | solubility in methanol ([3]; methanol): sparingly soluble | solubility in water ([3]; water): practically insoluble | Candesartan Cilexetil content in distilled water by UV-VIS [4]: cannot be detected

CCOc1nc2cccc(C(=O)O)c2n1Cc1ccc(-c2ccccc2-c2nnn[nH]2)cc1 [Candesartan]
dose excreted unchanged in urine ([5]; administered orally): about 26% | effect of food with a high fat content on bioavailability ([5]; after Candesartan Cilexetil administration): does not affect | absolute bioavailability of Candesartan ([5]; following administration of Candesartan Cilexetil): 15% | bound to plasma proteins ([5]; in vivo): > 99% | elimination half-life ([5]; in vivo): approximately 9 hours | penetration of red blood cells ([5]; in vivo): does not penetrate red blood cells | renal clearance ([5]; in vivo): 0.19 mL/min/kg | total plasma clearance ([5]; in vivo): 0.37 mL/min/kg | volume of distribution ([5]; in vivo): 0.13 L/kg | radioactivity recovered in feces [5, 7]: approximately 36% | radioactivity recovered in urine [5, 7]: approximately 59% | accumulation in serum ([5]; repeated once-daily dosing): do not accumulate | crossing of the blood-brain barrier [6]: crosses the blood-brain barrier poorly, if at all | passage across the placental barrier [6]: passes across the placental barrier and is distributed in the fetus
